The subject of the assay is Rabbit platelet rich plasma (PRP). Kind of assay: Inhibitory activity on platelet aggregation in rabbit platelet rich plasma (light transmission). Conditions: added to PRP 30 minutes before agent; for Inhibitory activity on platelet aggregation, PAF: compound 3x10^-6 (unit not given), Platelet activating factor (PAF) 10 mg/ml; for Inhibitory activity on platelet aggregation, ADP / Inhibitory activity on platelet aggregation, AA / Inhibitory activity on platelet aggregation, Collagen: compound 10^-4 (unit not given); for Inhibitory activity on platelet aggregation, ADP: Adenosine diphosphate (ADP) 5 mM; for Inhibitory activity on platelet aggregation, AA: Arachidonic acid (AA) 1 mM; for Inhibitory activity on platelet aggregation, Collagen: aggregating agent collagen. In kind it is cell-based. The procedure:
3. Experiment for inhibitory activity on platelet aggregation in rabbit:
Rabbit platelet rich plasma (PRP) was prepared by centrifugation of the citrated blood at 380 g for 10 minutes at 20°C. Test solution (10 µl) was added to PRP (200 µl) 30 minutes before treatment of aggregation agents (10 µl). The extent of aggregation was expressed with the maximum change in light transmission for PRP and platelet poor plasma was taken as a value of 100%

17 compounds from patent publication EP0320984A2, “1,4-Dihydropyridine derivatives” (FUJIREBIO INC., priority 1987, dated 1989) can be followed below.

In the case of `COC(=O)C1=C(C)NC(C)=C(C(=O)OC/C=C/c2ccc(Cn3ccnc3)cc2)C1c1ccnc2ccccc12` (stereo not shown) [Example 23, (E)-3-{4-(1-imidazolylmethyl)phenyl}-2-propen-1-yl methyl 1,4-dihydro-2,6-dimethyl-4-(4-quinolyl)pyridine-3,5-dicarboxylate], the “Inhibitory activity on platelet aggregation, PAF” value (“Inhibitory activity … PAF” for short) is on record as 0%; the “Inhibitory activity on platelet aggregation, ADP” value (“Inhibitory activity … ADP” below) turned out to be 2.6%; the “Inhibitory activity on platelet aggregation, AA” value (shortened to “Inhibitory activity … AA”) came out at 25.7%; the “Inhibitory activity on platelet aggregation, Collagen” value (“Inhibitory activity … Collagen” below) worked out at 29.5%.

For the compound `COC(=O)C1=C(C)NC(C)=C(C(=O)OCCON=Cc2ccc(Cn3ccnc3)cc2)C1c1cccc([N+](=O)[O-])c1` (stereo not shown) [Example 26, 2-[{4-(1-imidazolylmethyl)benzylideneamino}oxy]ethyl methyl 1,4-dihydro-2,6-dimethyl-4-(3-nitrophenyl)pyridine3,5-dicarboxylate], the “Inhibitory activity … PAF” value amounted to 30.0%; the “Inhibitory activity … ADP” value stood at 6.0%; the “Inhibitory activity … AA” value worked out at 27.6%; the “Inhibitory activity … Collagen” value is 13.5%.

For `COC(=O)C1=C(C)NC(C)=C(C(=O)OC/C=C/c2ccc(Cn3cncn3)cc2)C1c1cccc([N+](=O)[O-])c1` (stereo not shown) [Example 10, Methyl (E)-3-{4-(1,2,4-triazol-1-ylmethyl)phenyl}-2propen-1-yl 1,4-dihydro-2,6-dimethyl-4-(3-nitrophenyl)pyridine-3,5-dicarboxylate], the “Inhibitory activity … PAF” value was determined as 24.4%; the “Inhibitory activity … ADP” value stood at 2.1%; the “Inhibitory activity … AA” value was determined as 5.0%; the “Inhibitory activity … Collagen” value was 5.5%.

Take `COC(=O)C1=C(C)NC(C)=C(C(=O)OC/C=C/c2ccc(Cn3cnnc3)cc2)C1c1cccc([N+](=O)[O-])c1` (stereo not shown) [Example 9]: the “Inhibitory activity … PAF” value is 78.8%; the “Inhibitory activity … ADP” value came to 6.5%; the “Inhibitory activity … AA” value is given as 5.9%; the “Inhibitory activity … Collagen” value is 11.1%.

Take `COC(=O)C1=C(C)NC(C)=C(C(=O)OC/C=C/c2ccc(Cn3ccnc3)o2)C1c1cccc([N+](=O)[O-])c1` (stereo not shown) [Example 4, (E)-3-{5-(1-imidazolylmethyl)-2-furan}-2-propen-1-yl methyl 1,4-dihydro-2,6-dimethyl-4-(3-nitrophenyl)pyridine-3,5-dicarboxylate]: the “Inhibitory activity … PAF” value is reported as 95.6%; the “Inhibitory activity … AA” value stood at 30.8%; the “Inhibitory activity … Collagen” value is listed as 30.5%.

For `COC(=O)C1=C(C)NC(C)=C(C(=O)OC/C=C/c2ccc(Cn3ccnc3)cc2)C1c1cccc(C(F)(F)F)c1` (stereo not shown) [Example 17, (E)-3-{4-(1-imidazolylmethyl)phenyl}-2-propen-1-yl methyl 1,4-dihydro-2,6-dimethyl-4-(3-trifluoromethylphenyl)pyridine-3,5-dicarboxylate], the “Inhibitory activity … PAF” value was 39.7%; the “Inhibitory activity … ADP” value is on record as 10.5%; the “Inhibitory activity … AA” value worked out at 37.8%; the “Inhibitory activity … Collagen” value amounted to 55.0%.

Consider `COC(=O)C1=C(C)NC(C)=C(C(=O)OC/C=C/c2cccc(Cn3ccnc3)c2)C1c1cccc([N+](=O)[O-])c1` (stereo not shown) [Example 21, (E)-3-{3-(1-imidazolylmethyl)phenyl}-2-propen-1-yl methyl 1,4-dihydro-2,6-dimethyl-4-(3-nitrophenyl)pyridine-3,5-dicarboxylate], for which the “Inhibitory activity … PAF” value came to 25.4%; the “Inhibitory activity … ADP” value is 17.3%; the “Inhibitory activity … AA” value came out at 37.6%; the “Inhibitory activity … Collagen” value is reported as 29.5%.

Take `COC(=O)C1=C(C)NC(C)=C(C(=O)OC/C=C/c2ccc(Cn3ccnc3)cc2)C1c1cccc(Cl)c1Cl` (stereo not shown) [Example 12, (E)-3-{4-(1-imidazolylmethyl)phenyl}-2-propen-1-yl methyl 1,4-dihydro-2,6-dimethyl-4-(2,3-dichlorophenyl)pyridine-3,5-dicarboxylate]: the “Inhibitory activity … PAF” value was found to be 51.8%; the “Inhibitory activity … ADP” value is 7.3%; the “Inhibitory activity … AA” value is reported as 11.4%; the “Inhibitory activity … Collagen” value is reported as 10.3%.

For `COC(=O)C1=C(C)NC(C)=C(C(=O)OC/C=C/c2ccc(Cn3ccnc3)cc2)C1c1cccnc1` (stereo not shown) [Example 22, (E)-3-{4-(1-imidazolylmethyl)phenyl}-2-propen-1-yl methyl 1,4-dihydro-2,6-dimethyl-4-(3-pyridyl)pyridine-3,5-dicarboxylate], the “Inhibitory activity … PAF” value is listed as 0%; the “Inhibitory activity … ADP” value came out at 14.7%; the “Inhibitory activity … AA” value is 23.2%; the “Inhibitory activity … Collagen” value is on record as 24.7%.

With `CC1=C(C(=O)OC/C=C/c2ccccc2)C(c2cccc([N+](=O)[O-])c2)C(C(=O)OC/C=C/c2ccc(Cn3ccnc3)cc2)=C(C)N1` (stereo not shown) [Example 14, (E)-cinnamyl (E)-3-{4-(1-imidazolylmethyl)phenyl}-2-propen-1-yl 1,4-dihydro-2,6-dimethyl-4-(3-nitrophenyl)pyridine-3,5-dicarboxylate], the “Inhibitory activity … PAF” value was found to be 44.7%; the “Inhibitory activity … ADP” value came out at 4.3%; the “Inhibitory activity … AA” value is 42.0%; the “Inhibitory activity … Collagen” value was 69.6%.

Turning to `COC(=O)C1=C(C)NC(C)=C(C(=O)OC/C=C/c2ccccc2Cn2ccnc2)C1c1cccc([N+](=O)[O-])c1` (stereo not shown) [Example 20, (E)-3-{2-(1-imidazolylmethyl)phenyl}-2-propen-1-yl methyl 1,4-dihydro-2,6-dimethyl-4-(3-nitrophenyl)pyridine-3,5-dicarboxylate], the “Inhibitory activity … PAF” value stood at 0%; the “Inhibitory activity … ADP” value was 9.5%; the “Inhibitory activity … AA” value was determined as 30.4%; the “Inhibitory activity … Collagen” value is 32.3%.

As to `CCOC(=O)C1=C(C)NC(C)=C(C(=O)OC/C=C/c2ccc(Cn3ccnc3)cc2)C1c1cccc([N+](=O)[O-])c1` (stereo not shown) [Example 7, Ethyl (E)-3-{4-(1-imidazolylmethyl)phenyl}-2-propen-1-yl 1,4-dihydro-2,6-dimethyl-4-(3-nitrophenyl)pyridine-3,5-dicarboxylate], the “Inhibitory activity … PAF” value is listed as 0%; the “Inhibitory activity … ADP” value is on record as 4.3%; the “Inhibitory activity … AA” value came to 17.8%; the “Inhibitory activity … Collagen” value was 30.9%.

With `COC(=O)C1=C(C)NC(C)=C(C(=O)OC/C=C(\C)c2ccc(Cn3ccnc3)cc2)C1c1cccc([N+](=O)[O-])c1` (stereo not shown) [Example 6], the “Inhibitory activity … PAF” value is on record as 0%; the “Inhibitory activity … ADP” value was 6.5%; the “Inhibitory activity … AA” value is recorded as 15.6%; the “Inhibitory activity … Collagen” value came out at 27.2%.

With `COC(=O)C1=C(C)NC(C)=C(C(=O)OC/C=C/c2ccc(Cn3ccnc3)cc2)C1c1cccc([N+](=O)[O-])c1` (stereo not shown) [Example 1, (E)-3-{4-(1-imidazolylmethyl)phenyl}-2-propen-1-yl methyl 1,4-dihydro-2,6-dimethyl-4-(3-nitrophenyl)pyridine-3,5-dicarboxylate], the “Inhibitory activity … PAF” value was determined as 35.4%; the “Inhibitory activity … ADP” value is given as 7.3%; the “Inhibitory activity … AA” value is 26.2%; the “Inhibitory activity … Collagen” value is reported as 19.5%.

For the compound `COC(=O)C1=C(C)NC(C)=C(C(=O)OC/C=C/c2ccc(-n3ccnc3)cc2)C1c1cccc([N+](=O)[O-])c1` (stereo not shown) [Example 3, (E)-3-{4-(1-imidazolyl)phenyl}-2-propen-1-yl methyl 1,4-dihydro-2,6-dimethyl-4-(3-nitrophenyl)pylidine-3,5-dicarboxylate], the “Inhibitory activity … PAF” value was found to be 0%; the “Inhibitory activity … ADP” value came out at 2.2%; the “Inhibitory activity … AA” value is given as 19.3%; the “Inhibitory activity … Collagen” value came to 33.2%.

In the case of `COC(=O)C1=C(C)NC(C)=C(C(=O)OC/C=C/c2ccc(Cn3cnnn3)cc2)C1c1cccc([N+](=O)[O-])c1` (stereo not shown) [Example 11, Methyl (E)-3-{4-(1,2,3,4-tetrazol-1-ylmethyl)phenyl}-2-propen-1-yl 1,4-dihydro-2,6-dimethyl-4-(3-nitrophenyl)pyridine-3,5-dicarboxylate], the “Inhibitory activity … PAF” value was 31.1%; the “Inhibitory activity … ADP” value was 1.3%; the “Inhibitory activity … AA” value was 2.9%; the “Inhibitory activity … Collagen” value worked out at 7.1%.

Turning to `COC(=O)C1=C(C)NC(C)=C(C(=O)OC/C=C/c2ccc(Cn3ccnc3)s2)C1c1cccc([N+](=O)[O-])c1` (stereo not shown) [Example 5, (E)-3-{5-(1-imidazolylmethyl)-2-thiophene}-2-propen-1-yl methyl 1,4-dihydro-2,6-dimethyl-4-(3-nitrophenyl) pyridine-3,5-dicarboxylate], the “Inhibitory activity … PAF” value amounted to 100%; the “Inhibitory activity … ADP” value is listed as 12.0%; the “Inhibitory activity … AA” value turned out to be 33.4%; the “Inhibitory activity … Collagen” value amounted to 32.3%.
